# Assay results published in patent publication US20220380347A1, “INHIBITORS OF CYSTEINE PROTEASES AND METHODS OF USE THEREOF” (Pardes Biosciences, Inc., priority 2020, published 2022).
# pEC50, pIC50: −log10 of the molar value. Where two headings read alike, the source gives them in different places.
# Assays:
# [1] = target: COVID-19 (nCoV-2019, SARS-CoV2) Mpro (Severe acute respiratory syndrome coronavirus 2, UniProt P0DTD1); experiment: COVID-19 (nCoV-2019, SARS-CoV2) Mpro enzymatic assay; format: biochemical; conditions: 25 nM Mpro, 25 μM substrate; read-out: COVID-19 Mpro IC50
# HCov OC43 = experiment: HCoV OC43 cytopathic effect (CPE) assay, CellTiter Glo; format: cell-based, human coronavirus (HCov) OC43
# Description: Example 238: Evaluation of antiviral activity of compounds against human coronavirus (HCov) 229E and OC43 in the cytopathic effect (CPE) assays
# Compounds were assayed using standard methods against multiple coronaviral strains, including HCoV 229E and OC43 strains. The antiviral activity of compounds was calculated based on the protection of the virus-induced CPE at each concentration normalized by the virus control.
# Reference compound used was remdesivir; detection reagent: CellTiter Glo.) The CPE were measured by CellTiter Glo following the manufacturer's manual. The antiviral activity of compounds was calculated based on the protection of the virus-induced CPE at each concentration normalized by the virus control.
# Cell viability was measured with CellTiter Glo.
# 229E Mpro = 229E Mpro (Human coronavirus 229E, UniProt P0C6X1); experiment: 229E Mpro enzymatic assay (standard methods, SARS-CoV2 Mpro assay given as exemplary); format: biochemical, human coronavirus (HCov) 229E
# Description: Compounds were assayed using standard methods to assess compound activity and IC50. As an exemplary for assessment of the SARS-COV2 Mpro, the C-His6-tagged Mpro (NC_045512) was cloned, expressed in E. coli and purified. The assay buffer contained 20 mM of Tris-HCl (pH 7.3), 100 mM of NaCl, 1 mM of EDTA, 5 mM of TCEP and 0.1% BSA. The final concentrations of the Mpro protein and substrate were 25 nM and 25 μM, respectively, in the Mpro enzymatic assay. The Km of the Mpro substrate for the protease was 13.5 μM.
# The compounds were added to an assay plate. […] For no inhibition control (ZPE, zero percent effect), no compound was added.
# IC50 values of compounds were calculated with the GraphPad Prism software using the nonlinear regression model of log(inhibitor) vs. response—Variable slope (four parameters). The inhibition activity was calculated using the formula below, IC50 values is calculated using the Inhibition % data.
# Inhibition %=[(Sample-Average ZPE)/(Average HPE-Average ZPE)]*100%^#
# [2] = read-out: OC43 IC50 (uM) MEDIAN, median
# [3] = Betacoronavirus 1, OC43, read-out: OC43 IC50 (uM) MEDIAN, median
# Chain of 229E Mpro (P0C6X1 2966-3267): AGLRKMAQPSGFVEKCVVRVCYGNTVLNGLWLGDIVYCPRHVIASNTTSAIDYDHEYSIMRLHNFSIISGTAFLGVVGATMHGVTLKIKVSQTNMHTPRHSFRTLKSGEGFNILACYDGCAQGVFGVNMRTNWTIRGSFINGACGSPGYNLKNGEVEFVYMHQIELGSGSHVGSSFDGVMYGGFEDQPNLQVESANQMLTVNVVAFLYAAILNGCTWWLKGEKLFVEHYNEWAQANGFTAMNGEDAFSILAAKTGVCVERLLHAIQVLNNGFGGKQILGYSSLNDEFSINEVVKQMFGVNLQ
structure (smiles),measurement,setting,value
"CO[C@@H]1C[C@H](C(=O)N(c2ccc(S(F)(F)(F)(F)F)cc2)C(C(=O)NC2CCOC(C)(C)C2)c2cccnc2)N(C#N)C1 (single isomer, unassigned) [1165 Isomer 2]",pIC50,[1],4.52 to 5.00
same,IC50,HCov OC43; [2],2 to 10 µM
same,pEC50,229E Mpro; read-out: 229E Mpro EC50,> 5.70
"C[C@H](NC(=O)C(c1cncc(F)c1)N(C(=O)[C@H]1C[C@@](C)(O)CN1C#N)c1ccc(-c2ccccc2)cc1)c1ccccc1 (single isomer, unassigned) [1345 Isomer 1]",pIC50,[1],> 5.70
same,IC50,HCov OC43; [2],< 2 µM
same,pEC50,229E Mpro; 229E Mpro EC50,> 5.70
"CO[C@@H]1C[C@H](C(=O)N(c2ccc(S(F)(F)(F)(F)F)cc2)C(C(=O)NCC(C)(C)OC)c2cccnc2)N(C#N)C1 (single isomer, unassigned) [1194 Isomer 1]",pIC50,[1],> 5.70
same,IC50,HCov OC43; [3],< 2 µM
same,pEC50,229E Mpro; 229E Mpro EC50,> 5.70
"CC(C)(C)O[C@@H]1C[C@H](C(=O)N(c2ccc(C(C)(C)C)cc2)C(C(=O)NC2CCCCC2)c2cccnc2)N(C#N)C1 (single isomer, unassigned) [Compound 299 Isomer 1]",pIC50,[1],4.52 to 5.00
same,IC50,"HCov OC43; read-out: OC43 IC50 (uM) MEDIAN, median, listed as 299 Isomer 1",10 to 30 µM
same,pEC50,229E Mpro; 229E Mpro EC50,4.52 to 5.00
"N#CN1C[C@@H](F)C[C@@H]1C(=O)N(c1ccc(S(F)(F)(F)(F)F)cc1)C(C(=O)NC1CCC(F)(F)CC1)c1cncc(F)c1 (single isomer, unassigned) [Compound 1099 Isomer 2]",pIC50,[1],> 5.70
same,IC50,HCov OC43; [2],2 to 10 µM
same,pEC50,229E Mpro; read-out: 229E Mpro EC50,> 5.70
"CC(C)(C)c1ccc(N(C(=O)[C@H]2C[C@@H](O)CN2C#N)C(C(=O)NC2CCCC2)c2cccnc2)cc1 (single isomer, unassigned) [595 Isomer 2]",pIC50,[1],> 5.70
same,IC50,HCov OC43; [2],< 2 µM
same,pEC50,229E Mpro; read-out: 229E Mpro EC50,> 5.70
"CO[C@@H]1C[C@H](C(=O)N(c2ccc(S(F)(F)(F)(F)F)cc2)C(C(=O)NC2CCC(F)(F)CC2)c2cnccc2C(F)(F)F)N(C#N)C1 (single isomer, unassigned) [1202 Isomer 1]",pIC50,[1],> 5.70
same,IC50,HCov OC43; [3],< 2 µM
same,pEC50,229E Mpro; 229E Mpro EC50,> 5.70
"CC1(C)CN(C#N)[C@@H](C(=O)N(c2ccc(S(F)(F)(F)(F)F)cc2)C(C(=O)NC2CCC(F)(F)CC2)c2cncc(F)c2)CO1 (single isomer, unassigned) [1086b Isomer 2]",pIC50,[1],5.00 to 5.70
same,IC50,HCov OC43; [2],2 to 10 µM
same,pEC50,229E Mpro; read-out: 229E Mpro EC50,> 5.70
"CO[C@@H]1C[C@H](C(=O)N(c2ccc(C(C)(C)C)cc2)C(C(=O)NC2CCCCC2)c2cccnc2)N(C#N)C1 (single isomer, unassigned) [Compound 292 Isomer 1]",pIC50,[1],5.00 to 5.70
same,IC50,HCov OC43; [3],2 to 10 µM
same,pEC50,229E Mpro; 229E Mpro EC50,> 5.70
CN1C[C@H](C(=O)N(c2ccc(S(F)(F)(F)(F)F)cc2)C(C(=O)NC2CCOCC2)c2cccnc2)N(C#N)CC1=O (stereo partly drawn) [Compound 813],pIC50,[1],> 5.70
same,IC50,HCov OC43; [3],< 2 µM
same,pEC50,229E Mpro; 229E Mpro EC50,> 5.70
"CO[C@@H]1C[C@H](C(=O)N(c2ccc(S(F)(F)(F)(F)F)cc2)C(C(=O)NC2CCC(F)(F)CC2)c2cnccc2C)N(C#N)C1 (single isomer, unassigned) [1199 Isomer 2]",pIC50,[1],> 5.70
same,IC50,HCov OC43; [2],< 2 µM
same,pEC50,229E Mpro; read-out: 229E Mpro EC50,> 5.70
"CO[C@@H]1C[C@H](C(=O)N(c2ccc(S(F)(F)(F)(F)F)cc2)C(C(=O)NC2CC3CCC(C2)O3)c2cccnc2)N(C#N)C1 (single isomer, unassigned) [1187 Isomer 1]",pIC50,[1],> 5.70
same,IC50,HCov OC43; [3],< 2 µM
same,pEC50,229E Mpro; 229E Mpro EC50,> 5.70
"CO[C@@H]1C[C@H](C(=O)N(c2ccc(S(F)(F)(F)(F)F)cc2)C(C(=O)NCC2(C)CCCN(C(=O)OC(C)(C)C)C2)c2cccnc2)N(C#N)C1 (single isomer, unassigned) [1290 Isomer 2]",pIC50,[1],4.52 to 5.00
same,IC50,HCov OC43; [2],2 to 10 µM
same,pEC50,229E Mpro; 229E Mpro EC50,5.00 to 5.70
"N#CN1C[C@@H](OCc2ccccc2)C[C@@H]1C(=O)N(c1ccc(S(F)(F)(F)(F)F)cc1)C(C(=O)NC1CCC(F)(F)CC1)c1cncc(F)c1 (single isomer, unassigned) [1280 Isomer 2]",pIC50,[1],< 4.52
same,IC50,HCov OC43; [2],2 to 10 µM
same,pEC50,229E Mpro; 229E Mpro EC50,5.00 to 5.70
N#CC1(Nc2ccc(S(F)(F)(F)(F)F)cc2)CCCc2ccncc21 (stereo not drawn) [Compound 690b],pIC50,[1],< 4.52
same,IC50,HCov OC43; [3],> 30 µM
same,pEC50,229E Mpro; 229E Mpro EC50,< 4.52
